Laboratory results published in PubChem BioAssay (NCI).
Where “and” joins values, the source holds several entries; their conditions need not be identical. Equal values may be shown once.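 Step 1: Grow cells in 96-well plates. Step 2: Expose to compound for 48 hours at 5 concentrations. Step 3: Interpolate endpoints linearly; if unreached, use highest concentration. GI50 is the concentration that inhibits growth by half. TGI is the concentration that stops growth completely.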

Experiments:
Assay in all cases: growth of human tumour cells (NCI), 48 h
HCT-116 colon = system: HCT-116 colon
HOP-92 NSCLC = system: HOP-92 NSCLC
MOLT-4 leukemia = system: MOLT-4 leukemia
NCI-H226 lung = system: NCI-H226 lung
NCI-H23 lung = system: NCI-H23 lung
NCI-H522 lung = system: NCI-H522 lung
OVCAR-4 ovarian = system: OVCAR-4 ovarian
RXF 393 renal = system: RXF 393 renal
SK-MEL-2 melanoma = system: SK-MEL-2 melanoma
SK-MEL-28 melanoma = system: SK-MEL-28 melanoma

Row | SMILES | GI50 (HCT-116 colon) | TGI (HCT-116 colon) | GI50 (HOP-92 NSCLC) | TGI (HOP-92 NSCLC) | GI50 (MOLT-4 leukemia) | TGI (MOLT-4 leukemia) | GI50 (NCI-H226 lung) | TGI (NCI-H226 lung) | GI50 (NCI-H23 lung) | TGI (NCI-H23 lung) | GI50 (NCI-H522 lung) | TGI (NCI-H522 lung) | GI50 (OVCAR-4 ovarian) | TGI (OVCAR-4 ovarian) | GI50 (RXF 393 renal) | TGI (RXF 393 renal) | GI50 (SK-MEL-2 melanoma) | TGI (SK-MEL-2 melanoma) | GI50 (SK-MEL-28 melanoma) | TGI (SK-MEL-28 melanoma)
1 | CCN1CCN(Cc2ccc(-c3cc4c(N[C@H](C)c5ccccc5)ncnc4[nH]3)cc2)CC1 | 2.8 µM and 2.87 µM | 14.4 µM and > 10 µM | 167 nM and 523 nM | 4.21 µM and > 10 µM | 2620 nM and 2390 nM | 9.35 µM and > 10 µM | 3.03 µM and 7.73 µM | 24.7 µM and > 10 µM | 7390 nM and > 10000 nM | 33.3 µM and > 10 µM | 154 nM and 462 nM | 2.23 µM and > 10 µM | 4.71 µM and > 10 µM | 23 µM and > 10 µM | 1170 nM and 665 nM | 4.27 µM and 3.82 µM | 4.86 µM and > 10 µM | 17.4 µM and > 10 µM | 1960 nM and 1980 nM | 3.93 µM and 4.26 µM
2 | COc1cccc2c1C(=O)C=CC2=O |  | 12.1 µM |  | 3.75 µM |  | 2.34 µM |  | 38.3 µM |  | 30 µM |  | 5 µM |  | 3.77 µM |  | 17.7 µM |  | 19.8 µM |  | 33.6 µM
3 | NC1=NC(=O)/C(=C/c2ccccc2[N+](=O)[O-])C(N)=N1 |  | > 100 µM |  | > 100 µM |  | > 100 µM |  | > 100 µM |  | > 100 µM |  | > 100 µM |  | > 100 µM |  | > 100 µM |  | > 100 µM |  | > 100 µM
4 | O=C1C(Cl)=C(Nc2cccc(Cl)c2)C(=O)N1Cc1ccccc1 | 3.56 µM | 13.3 µM | 5360 nM | 26.3 µM | 3380 nM | > 100 µM | 10.5 µM | 29.3 µM | 5940 nM | 23.4 µM | 14200 nM | > 100 µM | 22.3 µM | 67.4 µM | 1360 nM | 7 µM | 21.7 µM | > 100 µM | 19500 nM | 55.5 µM
5 | COc1cc(NS(C)(=O)=O)ccc1Nc1c2ccc([N+](=O)[O-])cc2nc2c(C)cccc12 | 0.361 µM | 10.7 µM | 111 nM | 1.68 µM | 40.9 nM | 4.37 µM | 0.338 µM | 4.16 µM | 567 nM | 9.26 µM | 1070 nM | 2.9 µM | 3.32 µM | 19.1 µM | 1650 nM | 6.35 µM | 4.07 µM | 16.1 µM | 2730 nM | 17.4 µM
6 | CN1C(=O)CC(c2cccc(C3CC(=O)N(C)C3=O)n2)C1=O (stereo not given) |  | > 100 µM |  | > 100 µM |  | > 100 µM |  | > 100 µM |  | > 100 µM |  | > 100 µM |  | > 100 µM |  | > 100 µM |  | > 100 µM |  | > 100 µM
7 | CC[C@]1(O)CC(OC2CC(N(C)C)C(O)C(C)O2)c2c(cc3c(c2O)C(=O)c2c(O)cccc2C3=O)[C@@H]1C(=O)OC (stereo not given in full) |  | 10.4 µM |  | 1.51 µM |  | 0.677 µM |  | 2.17 µM |  | 2.47 µM |  | 1.65 µM |  | 1.49 µM |  | 1.76 µM |  | 1.82 µM |  | 3.04 µM
8 | C[C@@H]1COCCN1c1cc(C2([S@](C)(=N)=O)CC2)nc(-c2ccnc3[nH]ccc23)n1 | 4.67 µM and 4.53 µM | > 87.5 µM | 1340 nM and 1140 nM | 14 µM and 8.77 µM | 2580 nM and 3390 nM | 9.54 µM and > 10 µM | 4.98 µM and 8.53 µM | 51.3 µM and > 10 µM | 1740 nM and 1700 nM | 34.3 µM and > 10 µM | 8610 nM and 4820 nM | > 84 µM | 2.27 µM and 3.62 µM | 40.9 µM and > 10 µM | 1330 nM and 3340 nM | 6.37 µM and > 10 µM | 3.74 µM and 1.56 µM | 26.2 µM and > 10 µM | 10900 nM and > 10000 nM | > 79.7 µM
